The text below walks through data of ChEMBL document CHEMBL4270488, “Antibacterial Compounds from Marine Bacteria, 2010-2015” (J Nat Prod, 2017).

Structures are written as SMILES. Converted amounts (≈) assume the structure as drawn. Where a SMILES comes first, the peptide text is derived from it. [ ]: non-standard residue; d: D form. The star is where a group is joined. Tridecanoyl(3R-OH,11-Me) = CCC(C)CCCCCCC[C@@H](O)CC(=O)*; X1 = CCC(C)CC(C)CCCC[C@@H](O)CC(=O)*

For assay [1], the system named is Bacillus subtilis. Briefly: Antibacterial activity against Bacillus subtilis by broth dilution assay. Type of assay: functional. A general note: Broth dilution looks for growth in wells or tubes with falling amounts of substance.
Assay [2] relates to Escherichia coli. The experiment in a line: Antibacterial activity against Escherichia coli by broth dilution assay. Type of assay: functional.
For assay [3], the system named is Staphylococcus aureus. Briefly: Antibacterial activity against Staphylococcus aureus ATCC 29213. Type of assay: functional.
Assay [4] concerns Bacillus subtilis. Briefly: Antibacterial activity against Bacillus subtilis SCSIO BS01. Type of assay: functional.
The next assay relates to Bacillus thuringiensis. Briefly: Antibacterial activity against Bacillus thuringiensis SCSIO BT01. The format is functional.
Assay [5] deals with Bacillus subtilis. Briefly: Antibacterial activity against Bacillus subtilis by serial dilution assay. The format is functional.
In a further assay the test system is Micrococcus luteus. The experiment in a line: Antibacterial activity against Micrococcus luteus by serial dilution assay. The format is functional.
Assay [6] deals with Escherichia coli. The experiment in a line: Antibacterial activity against Escherichia coli by serial dilution assay. Type of assay: functional.
Another assay has as its system Proteus vulgaris. Briefly: Antibacterial activity against Proteus vulgaris by serial dilution assay. Type of assay: functional.
The subject of assay [7] is Staphylococcus aureus. Briefly: Antibacterial activity against methicillin-resistant Staphylococcus aureus. Type of assay: functional.
The test system of assay [8] is Staphylococcus aureus. The experiment in a line: Antibacterial activity against Staphylococcus aureus by broth dilution assay. The format is functional.
Another assay relates to Pseudomonas aeruginosa. Briefly: Antibacterial activity against Pseudomonas aeruginosa by broth dilution assay. The format is functional.
The test system of the next assay is Salmonella typhi. Briefly: Antibacterial activity against Salmonella typhi by broth dilution assay. Type of assay: functional, Salmonella enterica subsp. enterica serovar Typhi. The settings on record: Salmonella enterica.

As for `COC(=O)CCC(=O)O[C@@H]1/C=C/C=C\C[C@H](O)C[C@@H](O)/C=C/C=C/CCC[C@@H](C)OC(=O)/C=C\C=C\C1`, the MIC with Bacillus subtilis [1] and with Escherichia coli [2] was at least 16 µg/mL each time.
Regarding `C=C1CC[C@H](Br)C(C)(C)[C@@H]1C[C@@]12OC(C)(C)[C@H](Cl)C[C@]1(Cl)C(=O)c1c(O)cc(O)cc1C2=O`, the minimum inhibitory concentration (MIC) against Staphylococcus aureus [3], against Bacillus subtilis [4] and against Bacillus thuringiensis was at most 0.5 µg/mL in each case.
Regarding `O=C1NC(=O)C(c2ccc(O)c([N+](=O)[O-])c2)=C1c1ccc(O)cc1`, the MIC with Bacillus subtilis [5], against Micrococcus luteus, in the assay with Escherichia coli [6] and against Proteus vulgaris was 25 to 100 µg/mL (≈ 76.6 to 307 µM) throughout.
Turning to `CC(C)=CCC/C(C)=C/C[C@@]12OC(C)(C)[C@H](Cl)C[C@]1(Cl)C(=O)c1c(O)cc(O)cc1C2=O`, the MIC in the assay with Staphylococcus aureus [3], with Bacillus subtilis [4] and against Bacillus thuringiensis was at most 2 µg/mL throughout.
Consider `CC[C@H]1[C@@H]2C=C[C@@H]3[C@H]4C/C=C\C(=O)NCCC[C@@H]5NC(=O)C(=C5O)C(=O)/C=C/[C@@H]4C[C@@H]3[C@H]2C[C@H]1C`, for which the MIC (usually the lowest concentration found to suppress growth) in the assay on Staphylococcus aureus [7] was in the range of 1 to 4 µg/mL (≈ 2.09 to 8.36 µM).
Turning to `C[C@@H]1CCC/C=C/C=C/[C@H](O)C[C@@H](O)[C@H](O)/C=C\C=C\[C@@H](O)C/C=C/C=C\C(=O)O1`, the MIC amounted to 0.1 µg/mL (≈ 0.239 µM) in the assay on Staphylococcus aureus [8], 100 µg/mL (≈ 239 µM) with Bacillus subtilis [1] and 0.3 µg/mL (≈ 0.717 µM) against Escherichia coli [2].
Take `O=C1NC(=O)C(c2ccc(O)c([N+](=O)[O-])c2)=C1c1ccccc1`: the MIC in the assay with Bacillus subtilis [5], in the assay with Micrococcus luteus, in the assay with Escherichia coli [6] and in the assay with Proteus vulgaris was 25 to 100 µg/mL (≈ 80.6 to 322 µM) throughout.
Take `CC(C)=CCC/C(C)=C/C[C@]1(O)C(=O)c2cc(O)cc(O)c2C(=O)[C@@]1(Cl)CC=C(C)C`: the MIC against Staphylococcus aureus [3], against Bacillus subtilis [4] and with Bacillus thuringiensis was at most 2 µg/mL each time.
With `CC1(C)OC2=C(C[C@H]1Cl)C(=O)c1c(O)cc(O)cc1C2=O`, the MIC with Staphylococcus aureus [3], in the assay with Bacillus subtilis [4] and against Bacillus thuringiensis was 4 to 32 µg/mL (≈ 13 to 104 µM) each time.
Regarding `C[C@@H](O)CCC/C=C/C=C/[C@H](O)C[C@@H](O)C/C=C\C=C\[C@@H](O)C/C=C/C=C\C(=O)O`, the MIC with Bacillus subtilis [1] and against Escherichia coli [2] was 8 µg/mL (≈ 19 µM) throughout.
In the assay on Staphylococcus aureus [7], `CC(C)=CCc1cc(C(=O)Nc2c(O)c3ccc(O[C@@H]4OC(C)(C)[C@H](O)[C@@H](O)[C@H]4O)c(C)c3oc2=O)ccc1O` returned an MIC above 64 µg/mL.
On to `C[C@@H](O)CCC/C=C/C=C/[C@H](O)C[C@@H](O)C/C=C\C=C\C(=O)O`, for which the MIC against Bacillus subtilis [1] and against Escherichia coli [2] was at least 16 µg/mL in each case.
Regarding `CCC(C)CCCCCCC[C@@H](O)CC(=O)N[C@@H](CCC(=O)O)C(=O)N[C@@H](CC(C)C)C(=O)O` (stereo not given in full), the MIC in the assay with Staphylococcus aureus [8] is 0.01 µg/mL (≈ 0.0205 µM); in the assay with Bacillus subtilis [1] it was 0.01 µg/mL (≈ 0.0205 µM); in the assay with Pseudomonas aeruginosa, 0.03 µg/mL (≈ 0.0616 µM); in the assay with Salmonella typhi, 0.03 µg/mL (≈ 0.0616 µM).
Regarding `CCC(C)CC(C)CCCC[C@@H](O)CC(=O)N[C@@H](CCC(=O)O)C(=O)N[C@@H](CC(C)C)C(=O)N[C@@H](CC(C)C)C(=O)N[C@@H](CC(C)C)C(=O)O` (stereo not given in full) (X1-ELLL-OH), the minimal inhibitory concentration (MIC) against Staphylococcus aureus [8] was 0.03 µg/mL (≈ 0.0421 µM); against Bacillus subtilis [1], 0.03 µg/mL (≈ 0.0421 µM); with Pseudomonas aeruginosa it was 0.01 µg/mL (≈ 0.014 µM); against Salmonella typhi it was 0.01 µg/mL (≈ 0.014 µM).
For `CC(=O)O[C@H]1[C@@H](O)[C@H](Oc2ccc3c(O)c(NC(=O)c4cc(O)c(O)c(CC=C(C)C)c4)c(=O)oc3c2C)OC(C)(C)[C@@H]1O`, the MIC against Staphylococcus aureus [7] was above 64 µg/mL.
Consider `CCC(C)CCCCCCC[C@@H](O)CC(=O)N[C@@H](CCC(=O)O)C(=O)N[C@@H](CC(C)C)C(=O)N[C@@H](CC(C)C)C(=O)N[C@@H](C(=O)N[C@@H](CC(=O)O)C(=O)N[C@@H](CC(C)C)C(=O)N[C@@H](CC(C)C)C(=O)O)C(C)C` (stereo partly drawn) ({Tridecanoyl(3R-OH,11-Me)}-ELL[dV]DLL-OH), for which the minimum inhibitory concentration (MIC) in the assay with Staphylococcus aureus [8], in the assay on Bacillus subtilis [1], with Pseudomonas aeruginosa and with Salmonella typhi was 16 µg/mL (≈ 15.4 µM) throughout.
For `C[C@@H]1CCC/C=C/C=C/[C@H](O)C[C@@H](O)C[C@@H]2O[C@@H]2/C=C/[C@@H](O)C/C=C/C=C\C(=O)O1` [GAGEOMACROLACTIN 1], the MIC against Staphylococcus aureus [8] amounted to 0.01 µg/mL (≈ 0.0239 µM); with Bacillus subtilis [1] it was 0.01 µg/mL (≈ 0.0239 µM); in the assay on Escherichia coli [2] it was 0.02 µg/mL (≈ 0.0478 µM); in the assay with Pseudomonas aeruginosa, 0.01 µg/mL (≈ 0.0239 µM); against Salmonella typhi, 0.02 µg/mL (≈ 0.0478 µM).
With `CO[C@@H]1[C@@H](OC(N)=O)[C@@H](O)[C@H](Oc2ccc3c(O)c(NC(=O)c4cc(O)c(O)c(CC=C(C)C)c4)c(=O)oc3c2C)OC1(C)C`, the minimal inhibitory concentration (MIC) against Staphylococcus aureus [7] lay within 8 to 16 µg/mL (≈ 12.7 to 25.5 µM).
Regarding `CC[C@H]1[C@@H]2C=C[C@@H]3[C@H]4/C=C/CC(=O)NCCC[C@@H]5NC(=O)C(=C5O)C(=O)/C=C/[C@@H]4C[C@@H]3[C@H]2C[C@H]1C`, the minimum inhibitory concentration (MIC) in the assay with Staphylococcus aureus [7] is 1 to 4 µg/mL (≈ 2.09 to 8.36 µM).
`O=C1NC(=O)C(c2ccc(O)c([N+](=O)[O-])c2)=C1c1ccc(O)c([N+](=O)[O-])c1`: the minimal inhibitory concentration (MIC) with Bacillus subtilis [5], in the assay on Micrococcus luteus, against Escherichia coli [6] and in the assay with Proteus vulgaris was 25 to 100 µg/mL (≈ 67.3 to 269 µM) in each case.
